≈ marks a conversion by molar mass, not a printed value. Like-named read-outs stand apart in the source and are kept apart here. Marks after values point to notes of the source that are not given here.
Key:
[1] = tested on: strains of Klebsiella pneumoniae displaying MDR phenotypes; test: MIC-assay, Mueller-Hinton broth with G-block alginate, 384-well, OD600 (Table 10); type: cell-based; settings: Klebsiella pneumoniae (K3, India, V8) MDR
Description: Minimum inhibitory concentration (MICs) of different antibiotics for strains of Klebsiella pneumoniae displaying MDR phenotypes in the presence of varying concentrations of OligoCF-5/20 (0-10%). (MIC values are expressed in μg ml^−1).

[2] = tested on: V10 (Egypt) Acinetobacter lwoffii; test: MIC assay, CAMHB with alginate oligomer, no visible growth; type: cell-based; settings: Table 5, V10 MDR Acin. lwoff
[3] = tested on: Pseudomonas aeruginosa MDR R22 from China (V1); test: as above; type: cell-based; settings: Pseudomonas aeruginosa, Table 4, V1 MDR (China), read-out: MIC
Description: (§1) The study described in Example 1 was repeated with the following strains of bacteria and antibiotics as detailed in Tables 4, 5 and 6.

[4] = tested on: V9 (Egypt) Acinetobacter baumannii; test: as above; type: cell-based; settings: Table 5, V9 MDR Acin. baum
[5] = tested on: Acinetobacter baumannii MDR ACB from Libya (V4); test: as above; type: cell-based; settings: Acinetobacter baumannii, Table 4, V4 MDR (Libya), read-out: MIC
Description: as §1
The study described in Example 1 was repeated with the following strains of Acinetobacter baumannii, antibiotics and M-block alginate oligomer in place of OligoG CF-5/20 as detailed in Table 7. The M-block oligomer is 100% M with a DPn of 15 to 18,

[6] = tested on: PA01 Pseudomonas aeruginosa ATCC 15692; test: MIC assay, two-fold antibiotic dilutions in CAMHB with alginate oligomer, no visible growth; type: cell-based; settings: Pseudomonas aeruginosa, ATCC15692, Table 4, PA01 non MDR, read-out: MIC
[7] = tested on: Pseudomonas aeruginosa MDR 301 from Poland (V2); test: MIC assay, CAMHB with alginate oligomer, no visible growth; type: cell-based; settings: Pseudomonas aeruginosa, Table 4, V2 MDR (Pol.), read-out: MIC
MDR Providencia stuartii = test: MIC-assay, Mueller-Hinton broth with G-block alginate, 384-well, OD600 (Table 11); type: cell-based; settings: Providencia stuartii (IR57 India, V7) MDR
Description: Minimum inhibitory concentration (MICs) of different antibiotics for strains of E. coli and Providencia stuartii displaying MDR phenotypes in the presence of varying concentrations of OligoCF-5/20 (0-10%). (MIC values are expressed in μg ml^−1).

[8] = tested on: Acinetobacter lwoffii (6056, V22); test: MIC-assay, Mueller-Hinton broth with G-block alginate, 384-well, OD600
[9] = tested on: V12 5725 (Wales) Klebsiella pneumoniae; test: MIC assay, CAMHB with alginate oligomer, no visible growth; type: cell-based; settings: Table 5, V12 MDR Kleb pneu
V22 6056 Acinetobacter = test: as above; type: cell-based, Acinetobacter lwoffii; settings: Table 5, V22 MDR Acin. lwoff
[10] = tested on: Acinetobacter baumannii (MDR ACB, Libya, V4); test: MIC-assay, Mueller-Hinton broth with G-block alginate, 384-well, OD600
[11] = tested on: Burkholderia cepacia (1322, V23); test: as above; settings: Table 8, G-block (OligoCF-5/20) 10%
[12] = tested on: Pseudomonas aeruginosa (MDR 301, PSA, V2); test: as above; settings: Table 8, V2
[13] = tested on: Pseudomonas aeruginosa CFA 24-1, clinical mucoid strain (R80); test: MIC assay, CAMHB with alginate oligomer, no visible growth; type: cell-based; settings: Pseudomonas aeruginosa, Table 4, R80 non MDR (muc.), read-out: MIC
[14] = Table 9, G-block (OligoCF-5/20) 0%
[15] = Table 9, G-block (OligoCF-5/20) 2%
[16] = Table 9, G-block (OligoCF-5/20) 6%
[17] = Table 9, G-block (OligoCF-5/20) 10%

CC[C@H]1OC(=O)[C@H](C)[C@@H](O[C@H]2C[C@@](C)(OC)[C@@H](O)[C@H](C)O2)[C@H](C)[C@@H](O[C@@H]2O[C@H](C)C[C@H](N(C)C)[C@H]2O)[C@](C)(O)C[C@@H](C)C(=O)[C@H](C)[C@@H](O)[C@]1(C)O [Erythromycin] showed an MIC ([1]; G-block (OligoCF-5/20) 0%) of 128 µg/mL (≈ 174 µM), an MIC ([1]; G-block (OligoCF-5/20) 2%) of 128 µg/mL (≈ 174 µM) and an MIC ([1]; G-block (OligoCF-5/20) 6%) of 128 µg/mL (≈ 174 µM). The MIC ([1]; G-block (OligoCF-5/20) 10%) was 128 µg/mL (≈ 174 µM), the MIC ([2]; Acinetobacter lwoffii, OligoCF-5/20 0G, read-out: MIC) was under 0.5 µg/mL and the MIC ([2]; OligoCF-5/20 +2% G) was under 0.5 µg/mL. The MIC ([2]; OligoCF-5/20 +6% G) was under 0.5 µg/mL, the MIC ([2]; OligoCF-5/20 +10% G) was under 0.5 µg/mL and the MIC ([3]; OligoCF-5/20 0G) was 128 µg/mL (≈ 174 µM). The MIC ([3]; OligoCF-5/20 +6% G) was 64 µg/mL (≈ 87.2 µM), the MIC ([3]; OligoCF-5/20 +10% G) was 32 µg/mL (≈ 43.6 µM) and the MIC ([4]; Acinetobacter baumannii, OligoCF-5/20 0G, read-out: MIC) was 8 µg/mL (≈ 10.9 µM). The MIC ([4]; OligoCF-5/20 +2% G) was 4^† μg/ml, the MIC ([4]; OligoCF-5/20 +6% G) was 1^† μg/ml and the MIC ([4]; OligoCF-5/20 +10% G) was <0.5^† μg/ml. For the same compound, the MIC ([5]; OligoCF-5/20 0G) was 8 µg/mL (≈ 10.9 µM), the MIC ([5]; OligoCF-5/20 +2% G) was 2 µg/mL (≈ 2.73 µM) and the MIC ([5]; OligoCF-5/20 +6% G) was at most 1 µg/mL. For the same compound, the MIC ([5]; OligoCF-5/20 +10% G) was at most 1 µg/mL, the MIC ([6]; OligoCF-5/20 0G) was 128 µg/mL (≈ 174 µM) and the MIC ([6]; OligoCF-5/20 +2% G) was 64 µg/mL (≈ 87.2 µM). The MIC ([6]; OligoCF-5/20 +6% G) was 64 µg/mL (≈ 87.2 µM), the MIC ([6]; OligoCF-5/20 +10% G) was 16 µg/mL (≈ 21.8 µM) and the MIC ([7]; OligoCF-5/20 0G) was 128 µg/mL (≈ 174 µM). The MIC ([7]; OligoCF-5/20 +6% G) was 64 µg/mL (≈ 87.2 µM), the MIC ([7]; OligoCF-5/20 +10% G) was 16 µg/mL (≈ 21.8 µM) and the MIC (MDR Providencia stuartii; G-block (OligoCF-5/20) 0%) was 32 µg/mL (≈ 43.6 µM). It also gave an MIC (MDR Providencia stuartii; G-block (OligoCF-5/20) 2%) of 16 µg/mL (≈ 21.8 µM), an MIC (MDR Providencia stuartii; G-block (OligoCF-5/20) 6%) of 16 µg/mL (≈ 21.8 µM) and an MIC (MDR Providencia stuartii; G-block (OligoCF-5/20) 10%) of 16 µg/mL (≈ 21.8 µM). For the same compound, the MIC [8, 14] was under 2 µg/mL, the MIC [8, 15] was under 2 µg/mL and the MIC [8, 16] was under 2 µg/mL. For the same compound, the MIC [8, 17] was under 2 µg/mL, the MIC ([9]; Klebsiella pneumoniae, OligoCF-5/20 0G, read-out: MIC) was 512 µg/mL (≈ 698 µM) and the MIC ([9]; OligoCF-5/20 +6% G) was 512 µg/mL (≈ 698 µM). For the same compound, the MIC ([9]; OligoCF-5/20 +10% G) was 512 µg/mL (≈ 698 µM), the MIC (V22 6056 Acinetobacter; Acinetobacter, OligoCF-5/20 0G, read-out: MIC) was under 0.5 µg/mL and the MIC (V22 6056 Acinetobacter; OligoCF-5/20 +2% G) was under 0.5 µg/mL. It also gave an MIC (V22 6056 Acinetobacter; OligoCF-5/20 +6% G) of under 0.5 µg/mL, an MIC (V22 6056 Acinetobacter; OligoCF-5/20 +10% G) of under 0.5 µg/mL and an MIC [10, 14] of 32 µg/mL (≈ 43.6 µM). For the same compound, the MIC [10, 15] was 8 µg/mL (≈ 10.9 µM), the MIC [10, 16] was 4 µg/mL (≈ 5.45 µM) and the MIC [10, 17] was 2 µg/mL (≈ 2.73 µM). It also gave an MIC [11] of 64 µg/mL (≈ 87.2 µM), an MIC ([12]; Pseudomonas aeruginosa, G-block (OligoCF-5/20) 0%) of over 512 µg/mL and an MIC ([12]; Pseudomonas aeruginosa, G-block (OligoCF-5/20) 2%) of over 512 µg/mL. It also gave an MIC ([12]; G-block (OligoCF-5/20) 10%) of 512 µg/mL (≈ 698 µM), an MIC ([13]; OligoCF-5/20 0G) of 512 µg/mL (≈ 698 µM) and an MIC ([13]; OligoCF-5/20 +6% G) of 128 µg/mL (≈ 174 µM). It also gave an MIC ([13]; OligoCF-5/20 +10% G) of 32 µg/mL (≈ 43.6 µM).

From patent publication US9801901B2, “Alginate oligomers for use in overcoming multidrug resistance in bacteria” (priority 2009, dated 2017)
